Paper PMC5403251 (Neuropharmacology, 2016)

How the values were obtained:
[1] = system: C57BL/6J mice; test: Discrete-trials temporal discrimination task; assay type: in vivo, mouse
[2] = system: 5-HT2A; conditions: in mice; ref Canal et al., 2013; cited from earlier work
[3] = system: 5-HT2A; conditions: in humans; ref Almaula et al., 1996; Pigott et al., 2012; Canal et al., 2013; cited from earlier work
[4] = system: 5-HT2A; conditions: ref Kehne et al., 1996; cited from earlier work
[5] = DOI 0.3 mg/kg IP, 10 min before session
[6] = DOI 1 mg/kg IP, 10 min before session
[7] = DOI 3 mg/kg IP, 10 min before session, dose-response experiment
[8] = M100907 blockade experiment: vehicle pretreatment, DOI 3 mg/kg IP
[9] = SB-242,084 blockade experiment: vehicle pretreatment, DOI 3 mg/kg IP
[10] = M100907 0.03 mg/kg SC, 10 min before session
[11] = M100907 0.1 mg/kg SC, 10 min before session
[12] = M100907 0.3 mg/kg SC, 10 min before session

COc1cc(CC(C)N)c(OC)cc1I.Cl (stereo not drawn) [DOI, 1-(2,5-dimethoxy-4-iodophenyl)-2-aminopropane hydrochloride]
Difference limen [1, 5]: 1.20 ± 0.12 s | Slope (ε) [1, 5]: 1.009±0.108 | T50 [1, 5]: 6.36 ± 0.17 s | Trials completed [1, 5]: 188.3±2.7 | Weber fraction ([1]; DOI 0.3 mg/kg IP, 10 min before session, mean±SEM): 0.192±0.022 | Difference limen [1, 6]: 1.29 ± 0.14 s | Slope (ε) [1, 6]: 0.968±0.133 | T50 [1, 6]: 6.43 ± 0.13 s | Trials completed [1, 6]: 174.6±5.4 | Weber fraction [1, 6]: 0.200±0.021 | Difference limen [1, 7]: 1.89 ± 0.14 s | Slope (ε) [1, 7]: 0.608±0.044 | T50 [1, 7]: 7.08 ± 0.41 s | Weber fraction [1, 7]: 0.275±0.030 | %B responding (proportional choice of lever B) ([1]; DOI 3 mg/kg IP, 6.1, 7.8, 8.7 and 10.5 s after trial onset, dose-response experiment): significant reductions in %B responding | %B responding (proportional choice of lever B) ([1]; DOI 3 mg/kg IP, 6.9, 7.8, 9.6 and 10.5 s trials, M100907 blockade experiment): reduced %B responding | Difference limen [1, 8]: 1.71 ± 0.14 s | Slope (ε) [1, 8]: 0.661±0.044 | T50 [1, 8]: 7.35 ± 0.20 s | Trials completed [1, 8]: 148.3±8.8 | Weber fraction [1, 8]: 0.233±0.018 | Difference limen [1, 9]: 1.74 ± 0.16 s | Slope (ε) [1, 9]: 0.713±0.101 | T50 [1, 9]: 6.89 ± 0.31 s | Trials completed [1, 9]: 142.5±8.8 | Weber fraction [1, 9]: 0.255±0.026 | Correct responding during the 10.5 s-trials ([1]; after drug treatment that reduced %B responding at long stimulus intervals): more than 80% | Selectivity for 5-HT2A vs. 5-HT2C receptors [2]: 12 fold | Selectivity for 5-HT2A [3]: ~ 5 fold

COc1cccc([C@H](O)C2CCN(CCc3ccc(F)cc3)CC2)c1OC [M100907, (R)-(+)-α-(2,3-dimethoxyphenyl)-1-[2-(4-fluorophenyl)ethyl]-4-piperidinemethanol]
Effect of pretreatment on the T50 increase produced by DOI ([1]; M100907 0.03 mg/kg SC pretreatment, DOI 3 mg/kg IP): failed to completely block the T50 increase produced by DOI | Effect of pretreatment on the response to DOI (%B responding) ([1]; M100907 0.03 mg/kg SC pretreatment, DOI 3 mg/kg IP, 6.9 and 10.5 s stimuli): blocked the effect of DOI on %B responding | Difference limen [1, 10]: 1.31 ± 0.25 s | Slope (ε) [1, 10]: 0.997±0.114 | T50 [1, 10]: 6.42 ± 0.23 s | Trials completed [1, 10]: 163.6±6.5 | Weber fraction ([1]; M100907 0.03 mg/kg SC, 10 min before session, mean±SEM): 0.214±0.051 | Difference limen [1, 11]: 1.48 ± 0.15 s | Slope (ε) [1, 11]: 0.791±0.070 | T50 [1, 11]: 6.80 ± 0.37 s | Trials completed [1, 11]: 155.4±7.4 | Weber fraction ([1]; M100907 0.1 mg/kg SC, 10 min before session, mean±SEM): 0.220±0.021 | Difference limen [1, 12]: 1.60 ± 0.20 s | Slope (ε) [1, 12]: 0.857±0.184 | T50 ([1]; M100907 0.3 mg/kg SC, 10 min before session, 0.3 mg/kg): 7.71 ± 0.45 s | Weber fraction ([1]; M100907 0.3 mg/kg SC, 10 min before session, mean±SEM): 0.206±0.021 | Affinity for 5-HT2A [4]: subnanomolar | Fold lower affinity for 5-HT2C and α1 receptors than for 5-HT2A [4]: at least 100 fold | Selectivity for 5-HT2A vs. 5-HT2C receptors [2]: 165 fold
